Molecules are shown by their SMILES. Where only a bound is given, the exact number is not on record here.

Common to all, as to type: biochemical
For assay [1], the target named is metalloelastase (MMP-12) (Homo sapiens, UniProt P39900). Description: MMP-12 enzyme inhibition assay (coumarin-labelled peptide substrate). The conditions noted are these: read-out: IC50 MMP12. The protocol: (§1) Compounds of the invention were tested to assess their activities as inhibitors of MMP-1, MMP-2, MMP-9, MMP-14, MMP-12 and TACE. MMP-9 Assay Protocol
metalloelastase (MMP-12), sequence (P39900 106-470): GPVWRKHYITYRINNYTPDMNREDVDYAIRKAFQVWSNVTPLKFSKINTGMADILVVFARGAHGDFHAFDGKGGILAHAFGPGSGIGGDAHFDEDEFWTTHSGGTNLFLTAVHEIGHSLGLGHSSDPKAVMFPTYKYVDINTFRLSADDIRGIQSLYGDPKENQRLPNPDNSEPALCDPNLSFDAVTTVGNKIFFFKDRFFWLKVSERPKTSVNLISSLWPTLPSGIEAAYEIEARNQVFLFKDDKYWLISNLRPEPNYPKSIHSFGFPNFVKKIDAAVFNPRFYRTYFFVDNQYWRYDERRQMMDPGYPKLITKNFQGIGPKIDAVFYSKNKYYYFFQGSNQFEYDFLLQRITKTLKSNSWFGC
(§2) Compounds of the invention were tested for inhibitory activity against 92 kDa gelatinase (MMP-9) in an assay using a coumarin-labeled peptide substrate, (7-methoxycoumarin-4-yl)acetyl-Pro-Leu-Gly-Leu-(3-[2,4-dinitrophenyl]-L-2,3diaminopropionyl)-Ala-Arg-NH2 (McaPLGLDpaAR) (Knight et al, FEBS Lett. 1992; 263-266).
(§3) Stock solutions were made up as follows: Assay Butter: 100 mM Tris-HCl pH 7.6 containing 100 mM NaCl, 10 mM CaCl2, and 0.05% Brij 35.
(§4) Substrate: 0.4 mM McaPLGLDpaAR (from Bachem) (0.437 mg/ml) stock solution in 100% DMSO (stored at −20° C.). Dilute to 8 μM in assay butter.
(§5) Enzyme: Recombinant human 92 kDa gelatinase (MMP-9; APMA (4-aminophenyl mercuric acetate)-activated if necessary) appropriately diluted in assay butter.
(§6) Test Compounds were prepared initially as 10 mM compound solution in 100% DMSO, diluted to 1 mM in 100% DMSO, then serially diluted 3-fold in 100% DMSO across columns 1-10 of a 96-well microtitre plate Assay concentration range, 100 μM (column 1) to 5.1 nM (column 10).
(§7) The assay was performed in a total volume of 100 μL per well in 96-well microtitre plates. Activated enzyme (20 μL) was added to the wells followed by 20 μL of assay butter. Appropriate concentrations of test compounds dissolved in 10 μL of DMSO were then added followed by 50 μL of McaPLGLDpaAR (8 μM, prepared by dilution of DMSO stock in assay butter). For each as say ten concentrations of test compound were examined in duplicate. Control wells lack either enzyme or test compound. The reactions were incubated at 37° C. for 2 hours. The fluorescence at 405 nm was measured immediately with an SLT Fluostar fluorometer (SL T Labinstruments GmbH, Grödig, Austria) using 320 nm excitation, without stopping the reaction.
(§8) The effect of the test compound was determined from the dose response curve generated by the 10 duplicate concentrations of inhibitor. The IC50 (the concentration of compound required to give a 50% decrease in enzyme activity) was obtained by fitting data to the equation, Y=a+((b−a)/(1+(c/X)^d)). (Y=inhibition achieved for a particular dose; X=the dose in nM; a=minimum y or zero % inhibition; b=maximum y or 100% inhibition; c=is the IC50; d=is the slope). The result was rounded to one significant figure.
Compounds of the invention were tested for inhibitory activity against metalloelastase (MMP-12) in an assay using a coumarin-labelled peptide substrate, (7-methoxycoumarin-4-yl)acetyl-Pro-Leu-Gly-Leu-(3-[2,4-dinitrophenyl]-L-2,3-diaminopropionyl)-Ala-Arg-NH2 (McaPLGLDpaAR) (Knight et al, 1992, above). The protocol for this assay was as described for the MMP-9 assay above.

Assay [2] concerns the target T1, gelatinase A (MMP-2) (Homo sapiens, UniProt P08253).
T1 sequence (P08253 110-660): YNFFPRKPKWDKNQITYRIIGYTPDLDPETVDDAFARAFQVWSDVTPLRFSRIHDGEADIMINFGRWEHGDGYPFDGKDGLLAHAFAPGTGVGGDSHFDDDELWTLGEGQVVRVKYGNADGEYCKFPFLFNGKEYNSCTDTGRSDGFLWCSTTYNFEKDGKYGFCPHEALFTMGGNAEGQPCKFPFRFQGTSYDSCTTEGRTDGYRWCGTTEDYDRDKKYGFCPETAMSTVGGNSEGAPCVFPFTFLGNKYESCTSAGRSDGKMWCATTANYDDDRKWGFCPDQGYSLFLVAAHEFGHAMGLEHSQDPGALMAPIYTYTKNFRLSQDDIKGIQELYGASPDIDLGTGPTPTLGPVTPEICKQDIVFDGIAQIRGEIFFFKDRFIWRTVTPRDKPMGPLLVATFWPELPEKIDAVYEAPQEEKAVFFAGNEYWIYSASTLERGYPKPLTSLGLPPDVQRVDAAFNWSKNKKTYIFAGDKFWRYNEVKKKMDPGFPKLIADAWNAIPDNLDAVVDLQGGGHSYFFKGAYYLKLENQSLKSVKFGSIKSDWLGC
Description: MMP-2 enzyme inhibition assay (coumarin-labelled peptide substrate). The note with it: read-out: IC50 MMP2. The protocol:
Compounds of the invention were tested to assess their activities as inhibitors of MMP-1, MMP-2, MMP-9, MMP-14, MMP-12 and TACE. MMP-9 Assay Protocol […]
as §3
Substrate: 0.4 mM McaPLGLDpaAR (from Bachem) (0.437 mg/ml) stock solution in 100% DMSO (stored at −20° C.). Dilute to 8 μM in assay butter. […]
as §6, §7, §8
Compounds of the invention were tested for inhibitory activity against gelatinase A (MMP-2) in an assay using a coumarin-labelled peptide substrate, (7-methoxycoumarin-4-yl)acetyl-Pro-Leu-Gly-Leu-(3-[2,4-dinitrophenyl]-L-2,3diaminopropionyl)-Ala-Arg-NH2 (Mca PLGLDpaAR) (Knight et al, 1992, above). The protocol for this assay was as described for the MMP-9 assay above.

The target of assay [3] is 92 kDa gelatinase (MMP-9) (Homo sapiens, UniProt P14780). Description: MMP-9 enzyme inhibition assay (coumarin-labeled peptide substrate). The conditions noted are these: read-out: IC50 MMP9. As to the method: as §1, §2, §3, §4, §5, §6, §7, §8
92 kDa gelatinase (MMP-9), sequence (P14780 107-707 limits assumed): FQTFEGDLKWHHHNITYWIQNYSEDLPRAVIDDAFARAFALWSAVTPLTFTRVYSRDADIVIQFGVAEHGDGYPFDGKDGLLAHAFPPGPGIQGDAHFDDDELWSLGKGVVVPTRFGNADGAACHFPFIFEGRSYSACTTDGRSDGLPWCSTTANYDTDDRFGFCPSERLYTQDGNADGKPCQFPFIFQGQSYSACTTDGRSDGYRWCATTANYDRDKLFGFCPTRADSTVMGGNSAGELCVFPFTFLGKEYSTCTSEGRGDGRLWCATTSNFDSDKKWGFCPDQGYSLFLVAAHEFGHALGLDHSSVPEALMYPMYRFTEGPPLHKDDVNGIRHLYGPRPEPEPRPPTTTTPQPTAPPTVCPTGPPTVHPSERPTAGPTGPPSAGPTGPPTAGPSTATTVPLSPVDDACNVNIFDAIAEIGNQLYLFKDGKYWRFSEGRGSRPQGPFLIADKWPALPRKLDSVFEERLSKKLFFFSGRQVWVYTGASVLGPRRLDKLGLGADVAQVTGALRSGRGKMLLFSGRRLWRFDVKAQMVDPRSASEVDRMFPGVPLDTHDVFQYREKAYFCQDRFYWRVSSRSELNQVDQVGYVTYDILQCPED
Assay [4] has as its target MMP13 (Homo sapiens, UniProt P45452). Description: MMP13 inhibition (Table 1). The note with it: read-out: percentage inhibition MMP13.
The target of assay [5] is MMP-14 (Homo sapiens, UniProt P50281). Description: MMP-14 enzyme inhibition assay (coumarin-labelled peptide substrate). The note with it: @ 5 μM; read-out: percentage inhibition MMP14. The protocol: as §1, §2, §3, §4, §5, §6, §7, §8
Compounds of the invention were tested for inhibitory activity against MMP-14 in an assay using a coumarin-labelled peptide substrate, (7-methoxycoumarin-4-yl)acetyl-Pro-Leu-Gly-Leu-(3-[2,4-dinitrophenyl]-L-2,3diaminopropionyl)-Ala-Arg-NH2 (Mca PLGLD paAR) (Knight et al, 1992, above). The protocol for this assay was as described for the MMP-9 assay above.

Assay [6] concerns the target T2, collagenase (MMP-1) (Homo sapiens, UniProt P03956).
T2 sequence (P03956 100-469): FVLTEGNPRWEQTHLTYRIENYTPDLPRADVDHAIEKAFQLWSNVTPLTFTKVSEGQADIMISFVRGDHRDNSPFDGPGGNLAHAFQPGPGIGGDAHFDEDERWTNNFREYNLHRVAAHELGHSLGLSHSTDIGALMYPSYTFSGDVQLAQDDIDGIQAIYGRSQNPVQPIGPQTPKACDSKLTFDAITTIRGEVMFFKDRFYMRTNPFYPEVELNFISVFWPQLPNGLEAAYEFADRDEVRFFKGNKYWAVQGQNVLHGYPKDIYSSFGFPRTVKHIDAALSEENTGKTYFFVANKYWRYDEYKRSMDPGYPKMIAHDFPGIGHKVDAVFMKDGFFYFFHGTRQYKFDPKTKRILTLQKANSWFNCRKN
Description: MMP-1 enzyme inhibition assay (coumarin-labelled peptide substrate). The note with it: @ 5 μM; read-out: percentage inhibition MMP1. The protocol:
as §1, §2, §3, §4, §5, §6, §7, §8
Compounds of the invention were tested for inhibitory activity against collagenase (MMP-1) in an assay using a coumarin-labelled peptide substrate, (7-methoxycoumarin-4-yl)acetyl-Pro-Leu-Gly-Leu-(3-[2,4-dinitrophenyl]-L-2,3diaminopropionyl)-Ala-Arg-NH2 (Mca PLGLDpaAR) (Knight et al, 1992, above). The protocol for this assay was as described for the MMP-9 assay above.

`O=CN(O)C(CS(=O)(=O)N1CCc2ccccc2C1)c1cccs1` (stereo not shown) [Example 5, N-[2-(3,4-dihydroisoquinolin-2(1H)-ylsulfonyl)-1-(2-thienyl)ethyl]-N-hydroxyformamide]: the figures for the IC50 in assay [1], in assay [2] and in assay [3] were 16 nM, 759 nM and more than 5000 nM, respectively. Further, the inhibition at 0.1 µM in assay [4] (@ 0.1 μM) was 16%. For the same molecule, the inhibition at 5 µM in assay [4] amounted to 97%; in assay [5] it was 70%; in assay [6] it was 32%.
On to `CC(C)(C(CS(=O)(=O)N1CCc2ccccc2C1)N(O)C=O)N1CCOCC1` (stereo not shown) [Example 8, N-{1-[(3,4-dihydroisoquinolin-2(1H)-ylsulfonyl)methyl]-2-methyl-2-morpholin-4-ylpropyl}-N-hydroxyformamide], for which the IC50 in assay [1] was 627 nM; in assay [2], more than 5000 nM; in assay [3], more than 5000 nM. In addition, the results for the inhibition at 5 µM in assay [4], in assay [5] and in assay [6] were 41%, 8% and 5%, respectively.

A word on the IC50: it is the concentration at which inhibition is half-maximal. Broadly, the inhibition is how much of the control response was suppressed.
